Laboratory results as given in patent publication US10508085B2, “Compounds and methods for IDO and TDO modulation, and indications therefor” (Plexxikon Inc., priority 2016, dated 2019).

Key:
[1] = target: T1, Human Tryptophan 2,3-dioxygenase (TDO) (Homo sapiens, UniProt P48775); assay: Human TDO enzymatic assay (kynurenine level); format: biochemical; conditions: 1 nM TDO, 350 μM L-Trp; geometric mean; read-out: TDO GMean: IC50 (μM) (Biochemical Assay)
T1 construct: His tag (N); made in house; host or cells: E. coli
T1 sequence (P48775 whole entry): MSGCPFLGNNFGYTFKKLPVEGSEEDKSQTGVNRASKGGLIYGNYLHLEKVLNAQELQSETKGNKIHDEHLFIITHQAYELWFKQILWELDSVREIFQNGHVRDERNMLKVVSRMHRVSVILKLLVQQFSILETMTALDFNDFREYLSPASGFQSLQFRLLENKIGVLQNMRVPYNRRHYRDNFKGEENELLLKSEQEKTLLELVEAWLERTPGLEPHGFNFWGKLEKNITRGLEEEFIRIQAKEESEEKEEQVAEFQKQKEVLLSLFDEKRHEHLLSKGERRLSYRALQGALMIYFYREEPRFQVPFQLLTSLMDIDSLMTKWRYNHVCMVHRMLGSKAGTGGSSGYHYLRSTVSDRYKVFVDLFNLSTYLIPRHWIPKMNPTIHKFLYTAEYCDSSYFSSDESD
Procedure: (§1) Human Indoleamine 2,3-dioxygenase (IDO) and Tryptophan 2,3-dioxygenase (TDO) enzymatic assay
(§2) Human IDO or TDO with N-terminal His tag is purified in E. coli. The IDO enzymatic assay is performed using 6 nM IDO and 10 μM L-Trp in the presence of 10 mM ascorbic acid, 5 μM methylene blue, 100 nM catalase and 0.01% Tween 20 in 50 mM sodium phosphate buffer (pH 6.5). 19 μL of above reaction mixture is added to wells of 384 well reaction plate containing […] of various concentrations of test compound or DMSO vehicle and incubated for 20 minutes at room temperature. The TDO enzymatic reaction assay is performed using 1 nM TDO and 350 μM L-Trp in the presence of 10 mM ascorbic acid, 0.4 μM methylene blue, 100 nM catalase and 0.01% Tween 20 in 50 mM sodium phosphate buffer (pH 6.5). 19 μL of above reaction mixture is added to wells of 384 well reaction plate containing 1 μL of various concentrations of test compound or DMSO vehicle and incubated for 70 minutes at room temperature. 16 wells containing all the components of reaction mixture and 5% DMSO serve as high control. 16 well containing all the components except enzyme of reaction mixture and 5% DMSO serves as low control. Both IDO and TDO enzymatic reactions are stopped by addition of […] of 30% TCA and incubated 30 minutes at 50° C. to hydrolyze N-formylkynurenine produced by IDO or TDO to kynurenine. Upon measuring the kynurenine level, the percentage inhibition is calculated at individual concentrations relative to high and low controls. The data is analyzed by using nonlinear regression to generate IC50 values.

[2] = target: T2, Human Indoleamine 2,3-dioxygenase (IDO) (Homo sapiens, UniProt P14902); assay: Human IDO enzymatic assay (kynurenine level); format: biochemical; conditions: 6 nM IDO, 10 μM L-Trp; geometric mean; read-out: IDO1 GMean: IC50 (μM) (Biochemical Assay)
T2 construct: His tag (N); made in house; host or cells: E. coli
T2 sequence (P14902 whole entry): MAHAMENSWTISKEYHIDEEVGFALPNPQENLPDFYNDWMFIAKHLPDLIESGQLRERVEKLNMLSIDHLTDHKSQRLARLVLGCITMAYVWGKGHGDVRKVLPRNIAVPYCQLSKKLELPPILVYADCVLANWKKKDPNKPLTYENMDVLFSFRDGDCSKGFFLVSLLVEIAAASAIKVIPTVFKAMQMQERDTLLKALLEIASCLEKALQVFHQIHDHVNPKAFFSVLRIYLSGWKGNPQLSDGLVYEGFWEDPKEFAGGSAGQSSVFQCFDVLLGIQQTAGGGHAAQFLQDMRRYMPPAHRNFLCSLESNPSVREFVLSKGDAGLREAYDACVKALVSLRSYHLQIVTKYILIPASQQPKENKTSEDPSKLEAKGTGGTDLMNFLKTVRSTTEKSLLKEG
Procedure: as §1, §2

SMILES	IC50 [1]	IC50 [2]
CC(C)(C1CCN(C(=O)NCC#N)CC1)[C@H](O)c1cc(Cl)cc2cn[nH]c12 [Compound P-0587, (S)-4-(1-(5-chloro-1H-indazol-7-yl)-1-hydroxy-2-methylpropan-2-yl)-N-(cyanomethyl) piperidine-1-carboxamide]	0.0001 to 10 µM	0.0001 to 10 µM
CC(C)(C1CCN(C(=O)NCc2ccc(C#N)nc2)CC1)[C@H](O)c1cc(Cl)cc2cn[nH]c12 [Compound P-0590, (S)-4-(1-(5-chloro-1H-indazol-7-yl)-1-hydroxy-2-methylpropan-2-yl)-N-((6-cyanopyridin-3-yl)methyl)piperidine-1-carboxamide]	0.0001 to 10 µM	0.0001 to 10 µM
CC(C)NC(=O)N1CCC(C(C)(C)[C@H](O)c2cc(Cl)cc3cn[nH]c23)CC1 [Compound P-0594, (S)-4-(1-(5-chloro-1H-indazol-7-yl)-1-hydroxy-2-methylpropan-2-yl)-N-isopropylpiperidine-1-carboxamide]	0.0001 to 10 µM	0.0001 to 10 µM
CC(C)(C1CCN(C(=O)NCCCF)CC1)[C@H](O)c1cc(Cl)cc2cn[nH]c12 [Compound P-0596, (S)-4-(1-(5-chloro-1H-indazol-7-yl)-1-hydroxy-2-methylpropan-2-yl)-N-(3-fluoropropyl) piperidine-1-carboxamide]	0.0001 to 10 µM	0.0001 to 10 µM
CC(C)(C1CCN(C(=O)NCCCC#N)CC1)[C@H](O)c1cc(Cl)cc2cn[nH]c12 [Compound P-0597, (S)-4-(1-(5-chloro-1H-indazol-7-yl)-1-hydroxy-2-methylpropan-2-yl)-N-(3-cyanopropyl) piperidine-1-carboxamide]	0.0001 to 10 µM	0.0001 to 10 µM
CONC(=O)N1CCC(C(C)(C)[C@H](O)c2cc(Cl)cc3cn[nH]c23)CC1 [Compound P-0598, (S)-4-(1-(5-chloro-1H-indazol-7-yl)-1-hydroxy-2-methylpropan-2-yl)-N-methoxypiperidine-1-carboxamide]	0.0001 to 10 µM	0.0001 to 10 µM
CC(C)(C1CCN(C(=O)NCc2ccc(F)cn2)CC1)[C@H](O)c1cc(Cl)cc2cn[nH]c12 [Compound P-0601, (S)-4-(1-(5-chloro-1H-indazol-7-yl)-1-hydroxy-2-methylpropan-2-yl)-N-((5-fluoropyridin-2-yl)methyl) piperidine 1-carboxamide]	0.0001 to 10 µM	0.0001 to 10 µM
CC(C)(C1CCN(C(=O)NCc2ccc(F)cc2)CC1)[C@H](O)c1cc(Cl)cc2cn[nH]c12 [Compound P-0602, (S)-4-(1-(5-chloro-1H-indazol-7-yl)-1-hydroxy-2-methylpropan-2-yl)-N-(4-fluorobenzyl) piperidine-1-carboxamide]	0.0001 to 10 µM	0.0001 to 10 µM
CC(C)(C1CCN(C(=O)Nc2ccccc2)CC1)C(O)c1cc(Cl)cc2[nH]ncc12 (stereo not shown) [Compound P-0603, 4-(1-(6-chloro-1H-indazol-4-yl)-1-hydroxy-2-methylpropan-2-yl)-N-phenylpiperidine-1-carboxamide]	0.0001 to 10 µM	0.0001 to 10 µM
CC(C)(C1CCN(C(=O)Nc2ccc(Cl)nc2)CC1)C(O)c1cc(Cl)cc2cn[nH]c12 (stereo not shown) [Compound P-0604, 4-(1-(5-chloro-1H-indazol-7-yl)-1-hydroxy-2-methylpropan-2-yl)-N-(6-chloropyridin-3-yl)piperidine-1-carboxamide]	0.0001 to 10 µM	0.0001 to 10 µM
COc1ccc(NC(=O)N2CCC(C(C)(C)C(O)c3cc(Cl)cc4cn[nH]c34)CC2)cn1 (stereo not shown) [Compound P-0605, 4-(1-(5-chloro-1H-indazol-7-yl)-1-hydroxy-2-methylpropan-2-yl)-N-(6-methoxypyridin-3-yl)piperidine-1-carboxamide]	0.0001 to 10 µM	0.0001 to 10 µM
CC(C)(C1CCN(C(N)=O)CC1)C(O)c1cc(Cl)cc2[nH]ncc12 (stereo not shown) [Compound P-0606, 4-(1-(6-chloro-1H-indazol-4-yl)-1-hydroxy-2-methylpropan-2-yl)piperidine-1-carboxamide]	0.0001 to 10 µM	0.0001 to 10 µM
CC(C)(C)OC(=O)N1CCC(C(C)(C)C(O)c2cc(Cl)cc3[nH]ncc23)CC1 (stereo not shown) [Compound P-0607, tert-butyl 4-(1-(6-chloro-1H-indazol-4-yl)-1-hydroxy-2-methylpropan-2-yl)piperidine-1-carboxylate]	0.0001 to 10 µM	0.0001 to 10 µM
CC(C)(C1CCN(C(=O)CC2CC2)CC1)C(O)c1cc(Cl)cc2[nH]ncc12 (stereo not shown) [Compound P-0608, 1-(4-(1-(6-chloro-1H-indazol-4-yl)-1-hydroxy-2-methylpropan-2-yl)piperidin-1-yl)-2-cyclopropylethan-1-one]	0.0001 to 10 µM	0.0001 to 10 µM
CC(C)(C1CCN(C(=O)CN2CCOCC2)CC1)C(O)c1cc(Cl)cc2[nH]ncc12 (stereo not shown) [Compound P-0609, 1-(4-(1-(6-chloro-1H-indazol-4-yl)-1-hydroxy-2-methylpropan-2-yl)piperidin-1-yl)-2-morpholinoethan-1-one]	0.0001 to 10 µM	0.0001 to 10 µM
CC(C)(C1CCN(C(=O)CC2CCS(=O)(=O)CC2)CC1)C(O)c1cc(Cl)cc2[nH]ncc12 (stereo not shown) [Compound P-0610, 1-(4-(1-(6-chloro-1H-indazol-4-yl)-1-hydroxy-2-methylpropan-2-yl)piperidin-1-yl)-2-(1,1-dioxidotetrahydro-2H-thiopyran-4-yl)ethan-1-one]	0.0001 to 10 µM	0.0001 to 10 µM
O=C(C1CC1)N1CCC(C(F)(F)[C@H](O)c2c3c(cc4cn[nH]c24)CC3)CC1 [Compound P-0611, (R)-cyclopropyl(4-(2-(5,6-dihydro-1H-cyclobuta[f]indazol-7-yl)-1,1-difluoro-2-hydroxyethyl)piperidin-1-yl)methanone]	0.0001 to 10 µM	0.0001 to 10 µM
CCC(=O)N1CCC(C(F)(F)[C@H](O)c2c3c(cc4cn[nH]c24)CC3)CC1 [Compound P-0612, (R)-1-(4-(2-(5,6-dihydro-1H-cyclobuta[f]indazol-7-yl)-1,1-difluoro-2-hydroxyethyl)piperidin-1-yl) propan-1-one]	0.0001 to 10 µM	0.0001 to 10 µM

The next lines start with the values.

IC50 [1]	IC50 [2]	SMILES
0.0001 to 10 µM	0.0001 to 10 µM	CC(C)(C1CCN(C(=O)NC2CCC(F)(F)CC2)CC1)[C@H](O)c1cc(Cl)cc2cn[nH]c12 [Compound P-0588, (S)-4-(1-(5-chloro-1H-indazol-7-yl)-1-hydroxy-2-methylpropan-2-yl)-N-(4,4-difluorocyclohexyl) piperidine-1-carboxamide]
0.0001 to 10 µM	0.0001 to 10 µM	CC(C)(C1CCN(C(=O)N[C@H]2CCOC2)CC1)[C@H](O)c1cc(Cl)cc2cn[nH]c12 [Compound P-0589, 4-((S)-1-(5-chloro-1H-indazol-7-yl)-1-hydroxy-2-methylpropan-2-yl)-N-((S)-tetrahydrofuran-3-yl)piperidine-1-carboxamide]
0.0001 to 10 µM	0.0001 to 10 µM	CC(C)(C1CCN(C(=O)N[C@@H]2CC[C@@H](O)C2)CC1)[C@H](O)c1cc(Cl)cc2cn[nH]c12 [Compound P-0591, 4-((S)-1-(5-chloro-1H-indazol-7-yl)-1-hydroxy-2-methylpropan-2-yl)-N-((1R,3R)-3-hydroxycyclopentyl) piperidine-1-carboxamide]
0.0001 to 10 µM	0.0001 to 10 µM	CC(C)(C1CCN(C(=O)NC2CC(F)(F)C2)CC1)[C@H](O)c1cc(Cl)cc2cn[nH]c12 [Compound P-0592, (S)-4-(1-(5-chloro-1H-indazol-7-yl)-1-hydroxy-2-methylpropan-2-yl)-N-(3,3-difluorocyclobutyl) piperidine-1-carboxamide]
0.0001 to 10 µM	0.0001 to 10 µM	CC(C)(C1CCN(C(=O)N[C@@H]2CCOC2)CC1)[C@H](O)c1cc(Cl)cc2cn[nH]c12 [Compound P-0593, 4-((S)-1-(5-chloro-1H-indazol-7-yl)-1-hydroxy-2-methylpropan-2-yl)-N-((R)-tetrahydrofuran-3-yl)piperidine-1-carboxamide]
0.0001 to 10 µM	0.0001 to 10 µM	CC(C)(C1CCN(C(=O)NC2COC2)CC1)[C@H](O)c1cc(Cl)cc2cn[nH]c12 [Compound P-0595, (S)-4-(1-(5-chloro-1H-indazol-7-yl)-1-hydroxy-2-methylpropan-2-yl)-N-(oxetan-3-yl)piperidine-1-carboxamide]
0.0001 to 10 µM	0.0001 to 10 µM	CC1(CNC(=O)N2CCC(C(C)(C)[C@H](O)c3cc(Cl)cc4cn[nH]c34)CC2)CC1 [Compound P-0599, (S)-4-(1-(5-chloro-1H-indazol-7-yl)-1-hydroxy-2-methylpropan-2-yl)-N-((1-methylcyclopropyl)methyl)piperidine-1-carboxamide]
0.0001 to 10 µM	0.0001 to 10 µM	CC(C)(C1CCN(C(=O)N[C@H]2C[C@H](O)C2)CC1)[C@H](O)c1cc(Cl)cc2cn[nH]c12 [Compound P-0600, 4-((S)-1-(5-chloro-1H-indazol-7-yl)-1-hydroxy-2-methylpropan-2-yl)-N-((1r,3S)-3-hydroxycyclobutyl) piperidine-1-carboxamide]
